In patent US20190169218A1, “AMPHIPATHIC COMPOUND HAVING NOVEL PENTA-SACCHARIDE HYDROPHILIC GROUP AND USE THEREOF” (Industry-University Cooperation Foundation Hanyang …, priority 2016, published 2019):

How the values were obtained:
[1] = critical micelle concentration (CMC) by hydrophobic fluorescent staining with diphenylhexatriene (DPH); format: physicochemical
Excerpt: Methods of measuring CMC are not particularly limited, and methods widely known in the art may be used. For example, a fluorescence staining method using diphenylhexatriene (DPH) may be used.
To characterize PSAs of Preparation Examples 1 to 3 synthesized according to the synthetic method of Example 1; PSEs of Preparation Examples 4 to 7 synthesized according to the synthetic method of Example 2; TPS-Es and TPS-ELs of Preparation Examples 8 to 14 synthesized according to the synthetic method of Example 3; and TPS-As of Preparation Examples 15 to 17 synthesized according to the synthetic method of Example 4, the critical micellar concentrations (CMCs) of PSAs, PSEs and TPSs and the hydrodynamic radii (Rh) of formed micelles were measured.
(§1) Specifically, critical micellar concentrations (CMCs) were measured using hydrophobic fluorescent staining and diphenylhexatriene (DPH), and the hydrodynamic radii (Rh) of micelles formed by each compound at a concentration of 1.0 wt % were measured using dynamic light scattering (DLS). The results were compared with results obtained from an existing amphipathic molecule (detergent), DDM, and are shown in Table 1.

[2] = hydrodynamic radius of micelles by dynamic light scattering (DLS); format: physicochemical; settings: compound at 1.0 wt %
Protocol: Methods of measuring the radius of micelles are not particularly limited, and methods widely known in the art may be used. For example, dynamic light scattering (DLS) may be used.
as §1
When measuring, each of PSAs, PSEs and TPSs was used at a concentration of 1.0 wt %.

[3] = biological target: T1, human β2 adrenergic receptor (β2AR) (Homo sapiens, UniProt P07550); assay: β2AR activity by [3H]-dihydroalprenolol radioactive ligand binding assay; format: biochemical; settings: 3 or 5 days at room temperature
T1 construct: Flag; made in house
Protocol: The membrane protein stabilizing ability of receptors (mBBr-β2ARs) solubilized in PSAs or PSEs was evaluated by measuring the binding activity of the receptors to [^3H]-dihydroalprenolol ([^3H]-DHA).
Specifically, radioactive ligand binding assay was performed as follows. β2ARs purified with 0.1 wt % DDM was concentrated to about 10 mg/mL (approximately 200 μM). β2ARs purified with DDM were used to prepare a master binding mixture containing 10 nM [^3H]-dihydroalprenolol (DHA), which was dissolved in 0.2 wt % of DDM, PSA or PSE and supplemented with 0.5 mg/mL BSA. At a concentration of 0.2 pmol, the activity of the receptors purified with the amphipathic compounds was monitored at regular intervals over a 4-day incubation period. Protein samples were incubated on ice for 2 days and then at room temperature for 2 days. Receptor activity was measured by binding assay for dissolved radioactive ligands. The receptors purified with DDM or a novel formulation (PSA-C11, PSE-C11 or PSE-C13) were incubated with 10 nM [^3H]-DHA at room temperature for 30 minutes. The mixture was loaded onto a G-50 column, a solution passed through the column was collected in 1 mL of a binding buffer (100 mM NaCl and 20 mM HEPES (pH 7.5) supplemented with 0.5 mg/mL BSA and 20×CMC amphipathic compounds), and 15 mL of a scintillation fluid was added to the solution. Receptor-bound [^3H]-DHA was measured using a scintillation counter (Beckman). Non-specific binding of [^3H]-DHA was measured by adding 1 μM alprenolol (Sigma) to the same reaction mixture. The binding degree of the receptors to [^3H]-DHA was represented by a column graph.
The ability of TPSs (TPS-As, TPS-Es and TPS-ELs) to stabilize the structures of human β2 adrenergic receptors (β2ARs) and G protein-coupled receptors (GPCRs) was measured. That is, DDM-purified receptors were diluted with a buffer solution containing only each of the TPSs without cholesteryl hemisuccinate (CHS) or a buffer solution containing CHS and DDM. The final concentration of the compounds was CMC+0.2wt %, and the binding activity of the receptors to ligands was evaluated by measuring the degree of binding of the receptors to [^3H]-dihydroalprenolol ([^3H]-DHA).
Specifically, radioactive ligand binding assay was performed as follows. β2ARs were purified with 0.1 wt % DDM (D. M. Rosenbaum et al., Science, 2007, 318, 1266-1273.) and was concentrated to about 10 mg/mL (approximately 200 μM). β2ARs purified with DDM were used to prepare a master binding mixture containing 10 nM [^3H]-dihydroalprenolol (DHA), which was dissolved in 0.2% amphipathic compounds (DDM or TPSs) and supplemented with 0.5 mg/mL BSA. The activity of the receptors purified with the amphipathic compounds was monitored at regular intervals over a 3- to 5-day incubation period. The receptors purified with DDM or TPSs were incubated with 10 nM [^3H]-DHA at room temperature for 30 minutes. The mixture was loaded onto a G-50 column, a solution passed through the column was collected in 1 mL of a binding buffer (100 mM NaCl and 20 mM HEPES (pH 7.5) supplemented with 0.5 mg/mL BSA and 20×CMC of each amphipathic compound), and 15 mL of a scintillation fluid was added to the solution. Receptor-bound [^3H]-DHA was measured using a scintillation counter (Beckman). The binding degree of the receptors to [^3H]-DHA was represented by a column graph.

[4] = system: leucine transporter (LeuT); assay: LeuT stability, [3H]-Leu binding by scintillation proximity assay (SPA); format: biochemical, Aquifex aeolicus; settings: CMC+0.2 wt %, room temperature, 12 days
Protocol: The ability of PSAs, PSEs or TPSs (TPS-A/E/ELs) to stabilize leucine transporter (LeuT), a membrane protein, was measured. LeuT purified by DDM was mixed with a solution containing each amphipathic compound, and the mixture was incubated at room temperature for 12 days. The activity of LeuT proteins was measured by scintillation proximity assay (SPA) using a ligand ([^3H]-Leu), and the concentration of PSAs, PSEs, TPSs or DDM was (a) CMC+0.04 wt %, or (b) CMC+0.2 wt %.
Specifically, LeuT stability measurement was performed in the following manner. According to the results of Example 6, PSA-C10, PSA-C11, PSE-C9, PSE-C11, and PSE-C13 were selected as the amphipathic compounds of PSAs and PSEs except for PSA-C9, and wild type leucine transporter (LeuT) was purified from Aquifex aeolicus using TPS-As, TPS-Es and TPS-EL, according to the method described in G. Deckert et al. (Nature 1998, 392, 353-358.). E. coli C41 (DE3) was transformed with a pET16b plasmid containing a gene construct encoding C-terminal 8×His-tagged LeuT, and thus LeuT was expressed in the form of a fusion protein having 8×His tags at the C-terminus in the transformed E. coli C41 (the expression plasmid was provided by Dr. E. Gouaux, Vollum Institute, Portland, Oreg., USA). Briefly, bacterial membranes containing LeuT were treated with 1.0 wt % DDM, and proteins were bound to Ni^2+-NTA resin (Life Technologies, Denmark). LeuT bound to the resin was eluted using a buffer solution containing 20 mM Tris-HCl (pH 8.0), 1 mM NaCl, 199 mM KCl, 0.05% DDM and 300 mM imidazole. Next, about 1.5 mg/mL of protein stock was diluted 10-fold in an equivalent buffer supplemented with TPS-As, TPS-Es, TPS-ELs, PSAs/PSEs (PSA-C10, PSA-C11, PSE-C9, PSE-C11 and PSE-C13) or DDM (control group) to a final concentration of CMC+0.04 wt % or CMC+0.2 wt % without DDM and imidazole. The protein samples were stored at room temperature and centrifuged at designated times. Protein activity was determined by measuring the degree of binding to [^3H]-Leu using scintillation proximity assay (SPA) (M. Quick et al., Proc. Natl, Acad. Sci. U.S.A. 2007, 104, 3603-3608.). Briefly, SPA was performed with 5 μL of each protein sample dissolved in a buffer containing 450 mM NaCl and each test compound. The SPA reaction was performed in the presence of 20 nM [^3H]-Leu and copper chelate (His-Tag) YSi beads (both were purchased from PerkinElmer, Denmark). The degree of binding to [^3H]-Leu was measured using a MicroBeta liquid scintillation counter (PerkinElmer).

T1 sequence (P07550 whole entry): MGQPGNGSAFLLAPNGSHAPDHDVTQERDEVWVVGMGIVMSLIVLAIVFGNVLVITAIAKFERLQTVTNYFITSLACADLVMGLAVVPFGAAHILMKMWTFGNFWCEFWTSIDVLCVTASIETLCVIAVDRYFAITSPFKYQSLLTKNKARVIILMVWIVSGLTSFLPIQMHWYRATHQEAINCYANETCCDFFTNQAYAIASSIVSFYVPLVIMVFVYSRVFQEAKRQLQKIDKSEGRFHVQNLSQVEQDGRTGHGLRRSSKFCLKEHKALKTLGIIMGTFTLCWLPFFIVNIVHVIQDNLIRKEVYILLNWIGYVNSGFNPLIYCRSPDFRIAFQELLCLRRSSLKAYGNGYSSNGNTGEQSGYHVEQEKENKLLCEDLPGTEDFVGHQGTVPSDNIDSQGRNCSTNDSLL

Structure (SMILES)	CMC [1] [mM]	CMC (wt %) [1] [wt %]	Rh (nm), hydrodynamic radius of micelles [2] [nm]	long-term β2AR activity ([3H]-DHA binding) [3]	LeuT transporter activity retained after 12 days of incubation [4] [%]
CCCCCCCCCOCC(COCCCCCCCCC)(COCCCCCCCCC)CO[C@@H]1OC(COCCCO[C@@H]2OC(CO)[C@@H](O)C(O)C2O)[C@@H](OCCCO[C@@H]2OC(CO)[C@@H](O)C(O)C2O)C(OCCCO[C@@H]2OC(CO)[C@@H](O)C(O)C2O)C1OCCCO[C@@H]1OC(CO)[C@@H](O)C(O)C1O (some centres unmarked) [TPS-E9L]	~0.004	~0.0006	4.6 ± 0.18	significantly better than that of DDM	
CCCCCCCCOCC(COCCCCCCCC)(COCCCCCCCC)CO[C@@H]1OC(COCCCO[C@@H]2OC(CO)[C@@H](O)C(O)C2O)[C@@H](OCCCO[C@@H]2OC(CO)[C@@H](O)C(O)C2O)C(OCCCO[C@@H]2OC(CO)[C@@H](O)C(O)C2O)C1OCCCO[C@@H]1OC(CO)[C@@H](O)C(O)C1O (some centres unmarked) [TPS-E8L]	~0.006	~0.0009	4.5 ± 0.39		
CCCCCCCOCC(COCCCCCCC)(COCCCCCCC)CO[C@@H]1OC(CO[C@@H]2OC(CO)[C@@H](O)C(O)C2O)[C@@H](O[C@@H]2OC(CO)[C@@H](O)C(O)C2O)C(O[C@@H]2OC(CO)[C@@H](O)C(O)C2O)C1O[C@@H]1OC(CO)[C@@H](O)C(O)C1O (some centres unmarked) [TPS-E7]	~0.012	~0.0015	13.0 ± 0.8		
CCCCCCCCCCC(CCCCCCCCCC)(CO[C@@H]1O[C@H](CO)[C@@H](O[C@H]2O[C@H](CO)[C@@H](O)[C@H](O)[C@H]2O)[C@H](O)[C@H]1O)CO[C@@H]1O[C@H](CO)[C@@H](O[C@H]2O[C@H](CO)[C@@H](O)[C@H](O)[C@H]2O)[C@H](O)[C@H]1O [MNG-3, reference compound]					40
CCCCCCCOCC(COCCCCCCC)O[C@@H]1OC(CO[C@@H]2OC(CO)[C@@H](O)C(O)C2O)[C@@H](O[C@@H]2OC(CO)[C@@H](O)C(O)C2O)C(O[C@@H]2OC(CO)[C@@H](O)C(O)C2O)C1O[C@@H]1OC(CO)[C@@H](O)C(O)C1O (some centres unmarked) [PSE-C7]	~0.27	~0.0300	2.66 ± 0.04		
CCCCCCOCC(COCCCCCC)(COCCCCCC)CO[C@@H]1OC(CO[C@@H]2OC(CO)[C@@H](O)C(O)C2O)[C@@H](O[C@@H]2OC(CO)[C@@H](O)C(O)C2O)C(O[C@@H]2OC(CO)[C@@H](O)C(O)C2O)C1O[C@@H]1OC(CO)[C@@H](O)C(O)C1O (some centres unmarked) [TPS-E6]	~0.020	~0.0024	2.9 ± 0.05		
